According to patent publication US9062050B2, “Inhibitor of JAK1 and JAK2” (Eli Lilly and Company, priority 2012, dated 2015):

Molecular target: T1, JAK3 (Homo sapiens, UniProt P52333)
T1 sequence (P52333 1-1124): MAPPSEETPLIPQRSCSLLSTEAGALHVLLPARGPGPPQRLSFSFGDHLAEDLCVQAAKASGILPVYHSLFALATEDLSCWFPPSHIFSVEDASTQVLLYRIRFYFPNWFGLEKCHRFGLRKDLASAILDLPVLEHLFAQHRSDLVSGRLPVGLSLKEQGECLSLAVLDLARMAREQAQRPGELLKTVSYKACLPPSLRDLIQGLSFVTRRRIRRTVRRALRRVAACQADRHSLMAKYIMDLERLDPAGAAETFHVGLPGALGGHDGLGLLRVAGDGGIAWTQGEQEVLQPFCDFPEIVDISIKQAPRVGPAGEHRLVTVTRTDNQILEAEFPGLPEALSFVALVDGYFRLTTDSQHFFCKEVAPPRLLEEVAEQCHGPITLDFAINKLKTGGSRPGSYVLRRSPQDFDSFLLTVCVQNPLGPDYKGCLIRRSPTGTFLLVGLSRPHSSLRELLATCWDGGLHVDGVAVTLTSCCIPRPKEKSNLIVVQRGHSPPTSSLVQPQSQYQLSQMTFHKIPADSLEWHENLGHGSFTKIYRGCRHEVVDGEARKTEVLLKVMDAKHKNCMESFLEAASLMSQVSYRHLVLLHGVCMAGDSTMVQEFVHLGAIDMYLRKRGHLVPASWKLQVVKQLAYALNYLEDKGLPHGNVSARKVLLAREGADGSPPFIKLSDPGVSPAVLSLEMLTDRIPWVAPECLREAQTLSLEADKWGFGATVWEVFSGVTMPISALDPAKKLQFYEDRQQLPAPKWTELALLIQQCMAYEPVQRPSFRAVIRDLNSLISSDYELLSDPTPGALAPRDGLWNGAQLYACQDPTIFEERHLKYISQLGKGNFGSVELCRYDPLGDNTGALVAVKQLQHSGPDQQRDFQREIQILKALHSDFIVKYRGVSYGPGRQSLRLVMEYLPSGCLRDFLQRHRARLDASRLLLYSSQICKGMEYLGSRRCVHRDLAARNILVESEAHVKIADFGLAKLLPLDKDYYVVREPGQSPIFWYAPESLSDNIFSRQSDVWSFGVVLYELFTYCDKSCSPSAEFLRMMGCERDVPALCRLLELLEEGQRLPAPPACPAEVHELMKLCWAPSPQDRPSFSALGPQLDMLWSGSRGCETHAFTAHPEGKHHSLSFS
Assay: JAK LanthaScreen Kinase Assay (TR-FRET), JAK3
Format: biochemical
Text: The JAK LanthaScreen™ Kinase Assay (Life Technologies, #PV4844) is used to determine compound IC50 values against the JAK1, JAK2, and JAK3 kinases. This kinase assay is a Time Resolved Fluorescence Resonance Energy Transfer (TR-FRET) assay format that uses long-lifetime terbium (Tb) labeled antibody as the donor species and Green Fluorescent Protein-Signal Transducers and Activators of Transcription (GFP-STAT1) as the acceptor species.
The TR-FRET ratio is used to monitor JAK1, JAK2, or JAK3 activity where an increase in phosphorylation of the GFP-STAT1 results in an increase in the TR-FRET ratio. Perform the kinase reaction using a 12.5 microliter reaction volume in shallow black 384-well Proxiplate (PerkinElmer, #6008260). […] Incubate at room temperature for 90 minutes, and read in an EnVision plate reader (PerkinElmer, #2104-0010) with 340 nm wavelength excitation filter and emission filters of 520 nm and 495 nm wavelengths. The ratio is derived from the emission wavelength for the GFP-STAT1 which is measured at 520 nanometer versus the emission at 495 nanometer for the Tb-anti-pSTAT1[pTyr701]. Derive the IC50 value for the compound using percent inhibition data, which is calculated from the reaction data relative to on-plate controls (active enzyme versus 2.0 micromolar control-inhibited enzyme). […]

Compound: Cc1cc(Nc2ccc3ncn([C@@H]4CCc5ccc(F)cc54)c3n2)[nH]n1.Cl.Cl [Example 1, 3-[(1R)-6-fluoro-2,3-dihydro-1H-inden-1-yl]-N-(3-methyl-1H-pyrazol-5-yl)-3H-imidazo[4,5-b]pyridin-5-amine dihydrochloride]
- IC50 (enzyme assay, 2 micromolar ATP, n=6, read-out: IC50 against JAK3): 8 nM
- selectivity for JAK1 and JAK2 over JAK3 in the enzyme assays (enzyme assays, JAK1 and JAK2 versus JAK3): greater than four-fold
